Laboratory results published in patent US20010011137A1, “Use of triphenylmethyl-1,2,3-triazoles” (priority 1996, published 2001).

Clc1ccccc1C(c1ccccc1)(c1ccccc1)n1ccnn1 [Example 10, 1-(2-chlorotrityl)-1H-1,2,3-triazole]
melting point: 162 °C
